Assay results from patent publication US8586611B2 (priority 2005, dated 2013).

How the values were obtained:
Format in all cases: in vivo
Plasmopara viticola = test: Test B: grape downy mildew, spray 24 h after inoculation (disease rating, 100 = 100% disease control); settings: spray 24 h after inoculation, compounds without asterisk (not 40 or 10 ppm)
In short: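 This is a curative spray test, applied 24 h after inoculation. Compounds in 50/50 acetone–water with 250 ppm Trem 014 surfactant were sprayed to run-off on P. viticola-infected seedlings, with 200 ppm equating to 500 g/ha. Plants were kept 5 days in a 20 °C growth chamber, then 24 h humid, and scored 0–100 for disease control relative to controls.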

[1] = test system: Erysiphe graminis f. sp. tritici; test: Test E: wheat powdery mildew, spray the day before inoculation (disease rating, 100 = 100% disease control); settings: spray the day before inoculation, compounds without asterisk (not 40 or 10 ppm)
In short: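 Protective test: spores of E. graminis f. sp. tritici dusted on wheat seedlings one day after run-off spraying of test suspension (acetone/water with 250 ppm surfactant; 200 ppm = 500 g/ha). Ratings after 7 days in growth chamber at 20° C, 100 = full control, 0 = none, relative to controls.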

Phytophthora infestans [2] = test: whole plant or invertebrate; settings: tomato late blight; spray 17 h after inoculation; compounds without asterisk (not 40 or 10 ppm)
Phytophthora infestans [3] = test: whole plant or invertebrate; settings: tomato late blight; spray the day before inoculation; compounds without asterisk (not 40 or 10 ppm)

| Compound | Test B disease rating (100 = 100% disease control, 0 = no disease control) (Plasmopara viticola) | Test E disease rating (100 = 100% disease control, 0 = no disease control) [1] | Test D disease rating (100 = 100% disease control, 0 = no disease control) (Phytophthora infestans [2]) | Test C disease rating (100 = 100% disease control, 0 = no disease control) (Phytophthora infestans [3]) |
| --- | --- | --- | --- | --- |
| CC[C@H](c1ccccc1)N(C)C(=O)c1csc(C2CCN(C(=O)Cn3nc(C)cc3C)CC2)n1 [compound 118] | 99% | 0% | 99% | 100% |
| Cc1nc(C)n(CC(=O)N2CCC(c3nc(C(=O)N(C)[C@H](C)c4ccccc4)cs3)CC2)n1 [compound 120] | 7% | 0% | 100% | 51% |
| Cc1cn(CC(=O)N2CCC(c3nc(C(=O)N(C)[C@H](C)c4ccccc4)cs3)CC2)c(C)n1 [compound 121] | 0% | 0% | 0% | 47% |
| C[C@H](c1ccccc1)N(C)C(=O)c1csc(C2CCN(C(=O)Cn3cnc(C(F)(F)F)n3)CC2)n1 [compound 122] | 28% | 17% | 96% | 53% |
| CCCc1nc(C(F)(F)F)cn1CC(=O)N1CCC(c2nc(C(=O)N(C)[C@H](C)c3ccccc3)cs2)CC1 [compound 123] | 13% | 7% | 47% | 100% |
| Cc1cc(C(C)C)nn1CC(=O)N1CCC(c2nc(C(=O)N(C)[C@H](C)c3ccccc3)cs2)CC1 [compound 127] | 0% | 0% | 0% | 92% |
| CCc1nc(C)cn1CC(=O)N1CCC(c2nc(C(=O)N(C)[C@H](C)c3ccccc3)cs2)CC1 [compound 128] | 0% | 0% | 0% | 0% |
| Cc1ccc(C)c(CC(=O)N2CCC(c3nc(C(=O)N(C)C4CCCCc5ccccc54)cs3)CC2)c1 (stereo not drawn) [compound 129] | 0% | 0% | 57% | 50% |
| Cc1ccc(C)c(CC(=O)N2CCC(c3nc(C(=O)N(C)[C@@H]4CCc5ccccc54)cs3)CC2)c1 [compound 130] | 99% | 0% | 100% | 54% |
| Cc1ccc(C)c(CC(=O)N2CCC(c3nc(C(=O)N(C)[C@H]4CCc5ccccc54)cs3)CC2)c1 [compound 131] | 77% | 0% | 62% | 55% |
| Cc1ccc(C)c(CC(=O)N2CCC(c3nc(C(=O)N(C)[C@H]4CCCc5ccccc54)cs3)CC2)c1 [compound 133] | 77% | 0% | 79% | 53% |
| Cc1ccc(C)c(CC(=O)N2CCC(c3nc(C(=O)N(C)C4CCCc5sccc54)cs3)CC2)c1 (stereo not drawn) [compound 134] | 97% | 0% | 100% | 51% |
| Cc1ccc(C)c(CC(=O)N2CCC(c3nc(C(=O)N(C)C4CCCc5occc54)cs3)CC2)c1 (stereo not drawn) [compound 135] | 16% | 0% | 47% | 51% |
| Cc1ccc(C)c(CC(=O)N2CCC(c3nc(C(=O)N(C)C4CCSc5ccccc54)cs3)CC2)c1 (stereo not drawn) [compound 136] | 77% | 0% | 80% | 100% |
| Cc1ccc(C)c(CC(=O)N2CCC(c3nc(C(=O)N(C)C4CCOc5ccccc54)cs3)CC2)c1 (stereo not drawn) [compound 137] | 100% | 0% | 93% | 51% |
| Cc1ccc(C)c(CC(=O)N2CCC(c3nc(C(=O)N(C)C4COc5ccccc54)cs3)CC2)c1 (stereo not drawn) [compound 138] | 91% | 44% | 37% | 100% |
| CC(C)c1nccn1CC(=O)N1CCC(c2nc(C(=O)N(C)[C@H](C)c3ccccc3)cs2)CC1 [compound 139] | 0% | 0% | 0% | 0% |
| C[C@H](c1ccccc1)N(C)C(=O)c1csc(C2CCN(C(=O)Cn3cnc(C4CCCCC4)n3)CC2)n1 [compound 140] | 0% | 0% | 0% | 0% |
| C[C@H](c1ccccc1)N(C)C(=O)c1csc(C2CCN(C(=O)Cn3cnc(C(C)(C)C)c3)CC2)n1 [compound 141] | 0% | 0% | 0% | 0% |
| CCC(C)c1cc(C)n(CC(=O)N2CCC(c3nc(C(=O)N(C)[C@H](C)c4ccccc4)cs3)CC2)n1 (stereo partly drawn) [compound 142] | 0% | 87% | 0% | 0% |
| COc1ccccc1NC(=O)N1CCC(c2nc(C(=O)N(C)[C@H](C)c3ccccc3)co2)CC1 [compound 157] | 63% | 0% | 91% | 100% |
